Data reported in PubChem BioAssay AID330 (DTP/NCI, 2004).
“And” between values parts separate entries of the source, which are not always exact repeats. Identical values can stand only once. Toxic doses and inconclusive results are not listed. The calls were made as follows: active = survival T/C of 150% or more; inactive = T/C below 125% in these data.

System: P388 leukemia ip, CD2F1 mice, survival T/C
Experiment: NCI In Vivo Anticancer Drug Screen. Data for tumor model P388 Leukemia (intraperitoneal) in CD2F1 (CDF1) mice
Details: endpoint: median survival time, higher = longer survival
Summary of the method: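 Mice carrying the transplanted tumor received test compound or vehicle. Survival was recorded in each group, and the value is the treated-group measurement divided by that of the vehicle-treated control group.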

[1] = dose: 100.0 mg/kg/injection, schedule: Q01DX001 (ip), vehicle: Klucel (hydroxypropylcellulose) (HPC)
[2] = dose: 200.0 mg/kg/injection, schedule: Q01DX001 (ip), vehicle: Klucel (hydroxypropylcellulose) (HPC)
[3] = dose: 50.0 mg/kg/injection, schedule: Q01DX009 (ip), vehicle: saline with Tween-80
[4] = dose: 100.0 mg/kg/injection, schedule: Q01DX009 (ip), vehicle: saline with Tween-80
[5] = dose: 50.0 mg/kg/injection, schedule: Q01DX005 (ip), vehicle: saline with Tween-80
[6] = dose: 100.0 mg/kg/injection, schedule: Q01DX005 (ip), vehicle: saline with Tween-80
[7] = dose: 200.0 mg/kg/injection, schedule: Q01DX005 (ip), vehicle: saline with Tween-80
[8] = dose: 100.0 mg/kg/injection, schedule: Q04DX003 (ip), vehicle: saline with Tween-80
[9] = dose: 200.0 mg/kg/injection, schedule: Q04DX003 (ip), vehicle: saline with Tween-80
[10] = dose: 12.5 mg/kg/injection, schedule: Q01DX005 (ip), vehicle: saline with Tween-80
[11] = dose: 25.0 mg/kg/injection, schedule: Q01DX005 (ip), vehicle: saline with Tween-80
[12] = dose: 50.0 mg/kg/injection, schedule: Q01DX005 (ip), vehicle: Klucel (hydroxypropylcellulose) (HPC)
[13] = dose: 100.0 mg/kg/injection, schedule: Q01DX005 (ip), vehicle: Klucel (hydroxypropylcellulose) (HPC)
[14] = dose: 200.0 mg/kg/injection, schedule: Q01DX005 (ip), vehicle: Klucel (hydroxypropylcellulose) (HPC)

Measured: T/C

O=Cc1c(-c2ccc(-c3ccccc3)cc2)nc2n1CCS2
inactive: [1] 100 % of control | [2] 97 % of control

Cc1ccc(OP(=O)(Oc2ccc(C)cc2)Oc2ccc(C)cc2)cc1.Cc1ccc(OP(=O)(Oc2ccc(C)cc2)Oc2ccc(C)cc2)cc1.Cc1ccc(OP(=O)(Oc2ccc(C)cc2)Oc2ccc(C)cc2)cc1.Cc1ccc(OP(=O)(Oc2ccc(C)cc2)Oc2ccc(C)cc2)cc1.[Nd+3].[O-][Cl+3]([O-])([O-])O
inactive: [1] 90 % of control | [2] 91 % of control | dose: 400.0 mg/kg/injection, schedule: Q01DX001 (ip), vehicle: Klucel (hydroxypropylcellulose) (HPC) 86 % of control

C1OC2CC1CO2
inactive: [3] 100 % of control | [4] 103 % of control | dose: 200.0 mg/kg/injection, schedule: Q01DX009 (ip), vehicle: saline with Tween-80 103 % of control

CCN(Cc1cccc(S(=O)(=O)O)c1)c1ccc(C(=C2C=CC(=[N+](CC)Cc3cccc(S(=O)(=O)O)c3)C=C2)c2ccccc2Cl)cc1
inactive: [5] 103 % of control | [6] 99 % of control | [7] 110 % of control

NS(=O)(=O)c1ccc(C(=O)O)cc1
inactive: dose: 25.0 mg/kg/injection, schedule: Q04DX003 (ip), vehicle: saline with Tween-80 101 % of control | dose: 50.0 mg/kg/injection, schedule: Q04DX003 (ip), vehicle: saline with Tween-80 94 % of control | [8] 100 % of control | [9] 103 % of control

COc1ccc2c([O-])c3[n+](cc2c1OC)CCc1cc2c(cc1-3)OCO2
inactive: dose: 50.0 mg/kg/injection, schedule: Q04DX002 (ip), vehicle: saline with Tween-80 103 % of control | dose: 100.0 mg/kg/injection, schedule: Q04DX002 (ip), vehicle: saline with Tween-80 106 % of control | dose: 200.0 mg/kg/injection, schedule: Q04DX002 (ip), vehicle: saline with Tween-80 102 % of control

CCOC(=O)c1c(C)c2c(n1C)CCc1c-2nc(N)[nH]c1=O
inactive: dose: 50.0 mg/kg/injection, schedule: Q01DX009 (ip), vehicle: Klucel (hydroxypropylcellulose) (HPC) 97 % of control | dose: 100.0 mg/kg/injection, schedule: Q01DX009 (ip), vehicle: Klucel (hydroxypropylcellulose) (HPC) 97 % of control | dose: 200.0 mg/kg/injection, schedule: Q01DX009 (ip), vehicle: Klucel (hydroxypropylcellulose) (HPC) 88 % of control

CC1CC(OC(=O)CSC#N)CC(C)(C)C1 (stereo not drawn)
inactive: [10] 104 % of control | [11] 101 % of control | [5] 101 % of control and 108 % of control

CN(CCO)C1CC(C)(C)N(O)C(C)(C)C1
inactive: dose: 60.0 mg/kg/injection, schedule: Q01DX005 (ip), vehicle: saline 96 % of control | dose: 120.0 mg/kg/injection, schedule: Q01DX005 (ip), vehicle: saline 100 % of control | dose: 240.0 mg/kg/injection, schedule: Q01DX005 (ip), vehicle: saline 100 % of control

O=C(CCl)NN=C1C2CC3CC(C2)CC1C3
inactive: [4] 113 % of control

CCCCCCCCCCCC1C=CCC1 (stereo not drawn)
inactive: dose: 100.0 mg/kg/injection, schedule: Q01DX001 (ip), vehicle: saline 99 % of control | dose: 200.0 mg/kg/injection, schedule: Q01DX001 (ip), vehicle: saline 100 % of control | dose: 400.0 mg/kg/injection, schedule: Q01DX001 (ip), vehicle: saline 100 % of control

O=[N+]([O-])c1ccc(/C=C\S(=O)(=O)OCCCl)cc1
inactive: [12] 100 % of control

O=C(Nc1cnns1)c1ccccc1
inactive: dose: 12.5 mg/kg/injection, schedule: Q01DX009 (ip), vehicle: other 105 % of control | dose: 25.0 mg/kg/injection, schedule: Q01DX009 (ip), vehicle: other 99 % of control | dose: 50.0 mg/kg/injection, schedule: Q01DX009 (ip), vehicle: other 102 % of control | dose: 100.0 mg/kg/injection, schedule: Q01DX009 (ip), vehicle: other 105 % of control | dose: 200.0 mg/kg/injection, schedule: Q01DX009 (ip), vehicle: other 89 % of control

O=C(O)C1CCCN1C(=O)OCc1ccccc1 (stereo not drawn)
inactive: [13] 87 % of control | [14] 89 % of control | dose: 400.0 mg/kg/injection, schedule: Q01DX005 (ip), vehicle: Klucel (hydroxypropylcellulose) (HPC) 91 % of control

C[N+](C)=c1ccc2nc3c(cc(Nc4ccccc4)c4ccccc43)oc-2c1
inactive: dose: 60.0 mg/kg/injection, schedule: Q01DX005 (ip), vehicle: Klucel (hydroxypropylcellulose) (HPC) 88 % of control | dose: 120.0 mg/kg/injection, schedule: Q01DX005 (ip), vehicle: Klucel (hydroxypropylcellulose) (HPC) 91 % of control | dose: 240.0 mg/kg/injection, schedule: Q01DX005 (ip), vehicle: Klucel (hydroxypropylcellulose) (HPC) 103 % of control

COc1cc(NCCCCCCCNC(C)C)c2nccc(C)c2c1
inactive: dose: 3.13 mg/kg/injection, schedule: Q01DX009 (ip), vehicle: saline 105 % of control | dose: 6.25 mg/kg/injection, schedule: Q01DX009 (ip), vehicle: saline 102 % of control | dose: 12.5 mg/kg/injection, schedule: Q01DX009 (ip), vehicle: saline 99 % of control

O=C(CN1CCCCC1)Nc1nc(-c2ccc(Cl)cc2)cs1
inactive: dose: 6.25 mg/kg/injection, schedule: Q01DX005 (ip), vehicle: saline with Tween-80 100 % of control | [10] 94 % of control | [11] 89 % of control

CNC(=O)Nc1ccnc2ccc3c(ncn3C(=O)NC)c12
inactive: dose: 100.0 mg/kg/injection, schedule: Q01DX001 (ip), vehicle: saline with Tween-80 104 % of control | dose: 200.0 mg/kg/injection, schedule: Q01DX001 (ip), vehicle: saline with Tween-80 98 % of control

NC(=O)NN=C(C(F)(F)F)C(F)(F)F
inactive: [3] 110 % of control | [4] 101 % of control

OCC(COCCCCCCCCCCCC1C=CCC1)OCCCCCCCCCCCC1C=CCC1 (stereo not drawn)
inactive: dose: 100.0 mg/kg/injection, schedule: Q04DX003 (ip), vehicle: saline 101 % of control | dose: 200.0 mg/kg/injection, schedule: Q04DX003 (ip), vehicle: saline 104 % of control | dose: 400.0 mg/kg/injection, schedule: Q04DX003 (ip), vehicle: saline 104 % of control

C=CC1C(OC2OC(CO)C(O)C(O)C2O)OC=C(C(=O)OC)C1CC1CC(=O)CC(CCc2ccc(O)cc2)O1 (stereo not drawn)
inactive: dose: 8.0 mg/kg/injection, schedule: Q01DX005 (ip), vehicle: distilled water + Tween-80 96 % of control | dose: 16.0 mg/kg/injection, schedule: Q01DX005 (ip), vehicle: distilled water + Tween-80 99 % of control | dose: 25.0 mg/kg/injection, schedule: Q01DX005 (ip), vehicle: water 100 % of control | dose: 32.0 mg/kg/injection, schedule: Q01DX005 (ip), vehicle: distilled water + Tween-80 91 % of control | dose: 50.0 mg/kg/injection, schedule: Q01DX005 (ip), vehicle: water 99 % of control | dose: 64.0 mg/kg/injection, schedule: Q01DX005 (ip), vehicle: distilled water + Tween-80 90 % of control | dose: 100.0 mg/kg/injection, schedule: Q01DX005 (ip), vehicle: water 96 % of control | dose: 200.0 mg/kg/injection, schedule: Q01DX005 (ip), vehicle: water 99 % of control

ClSC(c1ccccc1)(c1ccccc1)c1ccccc1
inactive: [5] 103 % of control | [6] 118 % of control | [7] 94 % of control

O=C(Nc1ccccc1)c1cc(Cl)ccc1O
inactive: [8] 100 % of control | [9] 100 % of control | dose: 400.0 mg/kg/injection, schedule: Q04DX003 (ip), vehicle: saline with Tween-80 100 % of control

NC(CSC(c1ccccc1)c1ccccc1)C(=O)NCC(=O)O (stereo not drawn)
inactive: [12] 99 % of control | [13] 99 % of control | [14] 104 % of control
